The record followed here is patent publication US6689754B1, “Heterocyclic glycyl β-alanine derivatives” (G. D. Searle & Co., priority 1998, dated 2004).

The target of assay [1] is T1, Human fibrinogen receptor IIb/IIIa (Homo sapiens, UniProt P05106+P08514).
T1 construct: Human fibrinogen receptor ([…]) was purified from outdated platelets; from tissue; host or cells: outdated human platelets
The experiment in a line: Purified IIb/IIIa receptor assay: solid phase receptor assay, competition with biotinylated vitronectin. It is filed as binding. The conditions noted are these: 1 nM biotinylated vitronectin. From the text: Purified IIb/IIIa Receptor Assay
Human fibrinogen receptor ([…]) was purified from outdated platelets. (Pytela, R., Pierschbacher, M. D., Argraves, S., Suzuki, S., and Rouslahti, E. “Arginine-Glycine-Aspartic acid adhesion receptors”, Methods in Enzymology 144(1987):475-489.) Human vitronectin was purified from fresh frozen plasma as described in Yatohgo, T., Izumi, M., Kashiwagi, H., and Hayashi, M., “Novel purification of vitronectin from human plasma by heparin affinity chromatography,” Cell Structure and Function 13(1988):281-292. Biotinylated human vitronectin was prepared by coupling NHS-biotin from Pierce Chemical Company (Rockford, Ill.) to purified vitronectin as previously described. (Charo, I. F., Nannizzi, L., Phillips, D. R., Hsu, M. A., Scarborough, R. M., “Inhibition of fibrinogen binding to GP IIb/IIIa by a GP IIIa peptide”, J. Biol. Chem. 266(3)(1991): 1415-1421.) Assay buffer, OPD substrate tablets, and RIA grade BSA were obtained from Sigma (St. Louis, Mo.). Anti-biotin antibody was obtained from Calbiochem (La Jolla, Calif.). Linbro microtiter plates were obtained from Flow Labs (McLean, Vs.). ADP reagent was obtained from Sigma (St. Louis, Mo.).
This assay is essentially the same reported in Niiya, K., Hodson, E., Bader, R., Byers-Ward, V. Koziol, J. A., Plow, E. F. and Ruggeri, Z. M., “Increased surface expression of the membrane glycoprotein IIb/IIIa complex induced by platelet activation: Relationships to the binding of fibrinogen and platelet aggregation”, Blood 70(1987):475-483. The purified human fibrinogen receptor ([…]) was diluted from stock solutions to 1.0 μg/mL in Tris-buffered saline containing 1.0 mM Ca^++, Mg^++, and Mn^++, pH 7.4 (TBS^+++). The diluted receptor was immediately transferred to Linbro microtiter plates at 100 μL/well (100 ng receptor/well). The plates were sealed and incubated overnight at 4° C. to allow the receptor to bind to the wells. All remaining Steps were at room temperature. The assay plates were emptied and 200 μL of 1% RIA grade BSA in TBS^+++ (TBS^+++/BSA) were added to block exposed plastic surfaces. Following a 2 hour incubation, the assay plates were washed with TBS^+++ using a 96 well plate washer. Logarithmic serial dilution of the test compound and controls were made starting at a stock concentration of 2 mM and using 2 nM biotinylated vitronectin in TBS^+++/BSA as the diluent. This premixing of labeled ligand with test (or control) ligand, and subsequent transfer of 50 μL aliquots to the assay plate was carried out with a CETUS Propette robot; the final concentration of the labeled ligand was 1 nM and the highest concentration of test compound was 1.0×10^−4 M. The competition occurred for two hours after which all wells were washed with a plate washer as before. Affinity purified horseradish peroxidase labeled goat anti-biotin antibody was diluted 1:3000 in TBS^+++/BSA and 125 μL were added to each well. After 30 minutes, the plates were washed and incubated with […] substrate in 100 mM/L citrate buffer, pH 5.0. The plate was read with a microtiter plate reader at a wavelength of 450 nm and when the maximum-binding control wells reached an absorbance of about 1.0, the final A450 were recorded for analysis. The data were analyzed using a macro written for use with the EXCELJ spreadsheet program. The mean, standard deviation, and % CV were determined for duplicate concentrations. The mean A450 values were normalized to the mean of four maximum-binding controls (no competitor added)(B-MAX). The normalized values were subjected to a four parameter curve fit algorithm, [Robard et al., Int. Atomic Energy Agency.

The target of assay [2] is T2, Human vitronectin receptor (αvβ3) (Homo sapiens, UniProt P05106+P06756).
T2 construct: Human vitronectin receptor (αvβ3) was purified from human placenta; from tissue; host or cells: human placenta
The experiment in a line: Vitronectin adhesion assay: solid phase receptor assay, competition with biotinylated vitronectin. It is filed as binding. The conditions noted are these: purified human vitronectin receptor; 1 nM biotinylated vitronectin. How it is done: Vitronectin Adhesion Assay
Human vitronectin receptor (αvβ3) was purified from human placenta as previously described [Pytela et al., Methods in Enzymology, 144:475-489 (1987)]. Human vitronectin was purified from fresh frozen plasma as previously described [Yatohgo et al., Cell Structure and Function, 13:281-292 (1988)]. Biotinylated human vitronectin was prepared by coupling NHS-biotin from Pierce Chemical Company (Rockford, Ill.) to purified vitronectin as previously described [Charo et al., J. Biol. Chem., 266(3):1415-1421 (1991)]. Assay buffer, OPD substrate tablets, and RIA grade BSA were obtained from Sigma (St. Louis, Mo.). Anti-biotin antibody was obtained from Calbiochem (La Jolla, Calif.). Linbro microtiter plates were obtained from Flow Labs (McLean, Va.). ADP reagent was obtained from Sigma (St. Louis, Mo.).
This assay was essentially the same as previously reported [Niiya et al., Blood, 70:475-483 (1987)]. The purified human vitronectin receptor (αvβ3) was diluted from stock solutions to 1.0 μg/mL in Tris-buffered saline containing 1.0 mM Ca^++, Mg^++, and Mn^++, pH 7.4 (TBS^+++). The diluted receptor was immediately transferred to Linbro microtiter plates at 100 μL/well (100 ng receptor/well). The plates were sealed and incubated overnight at 4° C. to allow the receptor to bind to the wells. All remaining steps were at room temperature. The assay plates were emptied and 200 μL of 1% RIA grade BSA in TBS^+++ (TBS^+++/BSA) were added to block exposed plastic surfaces. Following a 2 hour incubation, the assay plates were washed with TBS^+++ using a 96 well plate washer. Logarithmic serial dilution of the test compound and controls were made starting at a stock concentration of 2 mM and using 2 nM biotinylated vitronectin in TBS^+++/BSA as the diluent. This premixing of labeled ligand with test (or control) ligand, and subsequent transfer of 50 μL aliquots to the assay plate was carried out with a CETUS Propette robot; the final concentration of the labeled ligand was 1 nM and the highest concentration of test compound was 1.0×10^−4 M. The competition occurred for two hours after which all wells were washed with a plate washer as before. Affinity purified horseradish peroxidase labeled goat anti-biotin antibody was diluted 1:3000 in TBS^+++/BSA and 125 μL were added to each well. After 30 minutes, the plates were washed and incubated with OPD/H2O2 substrate in 100 mM/L Citrate buffer, pH 5.0. The plate was read with a microtiter plate reader at a wavelength of 450 nm and when the maximum-binding control wells reached an absorbance of about 1.0, the final A450 were recorded for analysis. The data were analyzed using a macro written for use with the EXCELJ spreadsheet program. The mean, standard deviation, and % CV were determined for duplicate concentrations. The mean A450 values were normalized to the mean of four maximum-binding controls (no competitor added)(B-MAX). The normalized values were subjected to a four parameter curve fit algorithm [Rodbard et al., Int.

Molecules are shown by their SMILES. Counter-ions that a name gives are not always drawn.

In general, IC50 refers to the point on the concentration scale where inhibition reaches its midpoint. A low value points to greater potency in that assay. In the case of `N=C(N)Nc1cncc(C(=O)NCC(=O)NC(CC(=O)O)c2cc(Cl)cc(Br)c2O)c1` (centres unmarked) [Example 1], the figures for the IC50 in assay [1] and in assay [2] were 313 nM and 1.58 nM, respectively.
For the compound `N=C(N)Nc1cncc(C(=O)NCC(=O)NC(CC(=O)O)c2cc(Cl)cc(Cl)c2O)c1` (centres unmarked) [Example 2], the IC50 was found to be 272 nM in assay [1] and 1.32 nM in assay [2].
For `O=C(O)CC(NC(=O)CNC(=O)c1cncc(NC2=NCCN2)c1)c1cc(Cl)cc(Cl)c1O` (centres unmarked) [Example 3] the same measures were 298 nM and 0.41 nM.
For `O=C(O)CC(NC(=O)CNC(=O)c1cncc(NC2=NCCN2)c1)c1cc(Cl)cc(Br)c1O` (centres unmarked) [Example 4], in that order: 581 nM and 0.74 nM.
As for `O=C(O)CC(NC(=O)CNC(=O)c1cncc(NC2=NCCN2)c1)c1cc(Cl)cc(I)c1O` (centres unmarked) [Example 5], the results for the IC50 in assay [1] and in assay [2] were 884 nM and 0.42 nM, respectively.
For the compound `O=C(O)CC(NC(=O)CNC(=O)c1cncc(NC2=NCCCN2)c1)c1cc(Cl)cc(Cl)c1O` (centres unmarked) [Example 6], the half-maximal inhibitory concentration (IC50) came to 1260 nM in assay [1] and 0.27 nM in assay [2].
With `O=C(O)C[C@H](NC(=O)CNC(=O)c1cncc(NC2=NCC(O)CN2)c1)c1cc(Br)cc(Cl)c1O` (some centres unmarked) [Example 7], the IC50 in assay [1] was 361 nM; in assay [2], 0.21 nM.
On to `N=C(N)Nc1nc(C(=O)NCC(=O)NC(CC(=O)O)c2cccnc2)cs1` (centres unmarked) [Example 8], for which the IC50 in assay [1] is 857 nM; in assay [2] it was 95.1 nM.
Take `O=C(O)C[C@H](NC(=O)CNC(=O)c1cncc(N=C2NCC(O)CN2)c1)c1cc(Cl)cc(Br)c1O` (some centres unmarked) [Example 9]: the 50% inhibitory concentration (IC50) in assay [1] is 244 nM; in assay [2], 0.18 nM.
For `O=C(O)C[C@H](NC(=O)CNC(=O)c1cncc(N=C2NCC(O)CN2)c1)c1cc(Cl)cc(Cl)c1O` (some centres unmarked) [Example 10], the results for the IC50 in assay [1] and in assay [2] were 161 nM and 0.14 nM, respectively.
Consider `O=C(O)C[C@H](NC(=O)CNC(=O)c1cncc(N=C2NCC(O)CN2)c1)c1cc(Br)cc(Br)c1O` (some centres unmarked) [Example 11], for which the IC50 was found to be 462 nM in assay [1] and 0.34 nM in assay [2].
For `O=C(O)C[C@H](NC(=O)CNC(=O)c1cc(NC2=NCC(O)CN2)cs1)c1cc(Cl)cc(Cl)c1O` (stereo partly drawn) [Example 12, (3S)-N-[[4-[(1,4,5,6-tetrahydro-5-hydroxy-2-pyrimidinyl)amino]-2-thienyl]carbonyl]glycyl-3-(3,5-dichloro-2-hydroxyphenyl)-β-alanine, trifluoroacetate salt] the same measures were 442 nM and 4.5 nM.
For `O=C(O)CC(NC(=O)CNC(=O)c1cc(NC2=NCCN2)cs1)c1cc(Cl)cc(Cl)c1O` (stereo not drawn) [Example 13, N-[[4-[(4,5-dihydro-1H-imidazol-2-yl)amino]-2-thienyl]carbonyl]glycyl-3-(3,5-dichloro-2-hydroxyphenyl)-β-alanine, trifluoroacetate salt], in that order: 780 nM and 9.32 nM.
For `Cc1sc(C(=O)NCC(=O)N[C@@H](CC(=O)O)c2cc(Cl)cc(Cl)c2O)cc1NC1=NCC(O)CN1` (stereo partly drawn) [Example 14, (3S)-N-[[5-methyl-4-[(1,4,5,6-tetrahydro-5-hydroxy-2-pyrimidinyl)amino]-2-thienyl]carbonyl]glycyl-3-(3,5-dichloro-2-hydroxyphenyl)-β-alanine, trifluoroacetate salt] the same measures were 772 nM and 12.4 nM.
Take `Cc1sc(C(=O)NCC(=O)N[C@@H](CC(=O)O)c2cc(Cl)cc(Cl)c2O)cc1NC1=NCCN1` [Example 15, (3S)-N-[[4-(4,5,-dihydro-1H-imidazol-2-yl)amino]-5-methyl-2-thienyl]carbonyl]glycyl-3-(3,5-dichloro-2-hydroxyphenyl)-β-alanine, trifluoroacetate salt]: the concentration for half-maximal inhibition (IC50) in assay [1] is 1040 nM; in assay [2], 25.4 nM.
For the compound `O=C(O)CC(NC(=O)CNC(=O)c1ccc(NC2=NCCN2)s1)c1cc(Cl)cc(Cl)c1O` (stereo not drawn) [Example 16, N-[[5-(4,5,-dihydro-1H-imidazol-2-yl)amino]-2-thienyl]carbonyl]glycyl]-3-(3,5-dichloro-2-hydroxyphenyl)-β-alanine, trifluoroacetate salt], the IC50 is 6180 nM in assay [1] and 22000 nM in assay [2].
As for `COc1ncc(C(=O)NCC(=O)NC(CC(=O)O)c2cc(Cl)cc(Cl)c2O)cc1NC1=NCCN1` (stereo not drawn) [Example 17, N-[[5-(4,5,-dihydro-1H-imidazol-2-yl)amino]-6-methoxy-3-pyridinyl]carbonyl]glycyl]-3-(3,5-dichloro-2-hydroxyphenyl)-β-alanine, bis(trifluoroacetate) salt], the concentration for half-maximal inhibition (IC50) in assay [1] stood at 724 nM; in assay [2], 0.46 nM.
For `Cn1cc(C(=O)NCC(=O)NC(CC(=O)O)c2cc(Cl)cc(Cl)c2O)cc(NC2=NCCN2)c1=O` (stereo not drawn) [Example 18, N-[[5-(4,5,-dihydro-1H-imidazol-2-yl)amino]-1,6-dihydro-1-methyl-6-oxo-3-pyridinyl]carbonyl]glycyl-3-(3,5-dichloro-2-hydroxyphenyl-β-alanine, (trifluoroacetate) salt], in that order: 798 nM and 0.43 nM.
For `O=C(O)CC(NC(=O)CNC(=O)c1cnc(Cl)c(NC2=NCCN2)c1)c1cc(Cl)cc(Cl)c1O` (stereo not drawn) [Example 19, N-[[6-chloro-5-[(4,5,-dihydro-1H-imidazol-2-yl)amino]-3-pyridinyl]carbonyl]-glycyl-3-(3,5-dichloro-2-hydroxyphenyl)-β-alanine, (trifluoroacetate) salt, monohydrate] the same measures were 2490 nM and 2.96 nM.
